# Values joined by “and” are separate entries in the source; they are usually repeats but may differ in a detail not shown here. Equal entries are not always repeated. Where two headings read alike, the source gives them in different places. Marks after values point to notes of the source that are not given here.
# Assays:
# human FGF-R1 = human FGF-R1 (Homo sapiens, UniProt P11362, C488A/C584S/L457V); assay: FGF-R spectrophotometric assay; assay type: biochemical; conditions: Table 1, compound concentration 1 µM; for inhibition at 1 µM: read-out: FGF-P* (% inhibition); for FGF-P* (% inhibition): 1 µM
# Sequence of human FGF-R1 (P11362 456-766 L457V/C488A/C584S): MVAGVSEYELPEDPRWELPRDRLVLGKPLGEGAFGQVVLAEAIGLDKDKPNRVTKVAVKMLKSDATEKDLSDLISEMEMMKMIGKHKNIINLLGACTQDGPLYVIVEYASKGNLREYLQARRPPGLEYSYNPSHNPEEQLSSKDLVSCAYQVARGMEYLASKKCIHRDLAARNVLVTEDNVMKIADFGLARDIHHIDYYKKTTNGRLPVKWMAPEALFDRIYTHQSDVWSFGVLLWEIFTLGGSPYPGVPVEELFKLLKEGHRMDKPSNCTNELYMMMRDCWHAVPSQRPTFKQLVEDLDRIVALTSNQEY
# Method: The spectrophotometric assay was carried out as described above for VEGF-R2, except for the following changes in concentration: FGF-R = 50 nM, ATP = 2 mM, and poly(E4Y1) =15 mM.
# LCK tyrosine kinase = LCK tyrosine kinase (Homo sapiens, UniProt P06239, C224D/P223M); assay: LCK spectrophotometric assay; assay type: biochemical; conditions: Table 1, compound concentration 1 µM; for inhibition at 1 µM: read-out: Lck-P* (% inhibition); for Lck-P* (% inhibition): 1 µM
# Sequence of LCK tyrosine kinase (P06239 223-509 P223M/C224D): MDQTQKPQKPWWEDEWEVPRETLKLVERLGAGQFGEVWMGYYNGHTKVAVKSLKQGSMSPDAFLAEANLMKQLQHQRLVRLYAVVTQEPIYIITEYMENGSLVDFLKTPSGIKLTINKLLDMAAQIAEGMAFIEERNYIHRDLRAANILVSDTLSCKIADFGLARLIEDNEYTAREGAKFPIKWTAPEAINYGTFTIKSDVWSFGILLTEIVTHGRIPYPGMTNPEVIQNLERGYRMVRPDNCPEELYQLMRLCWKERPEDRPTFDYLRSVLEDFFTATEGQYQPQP
# Method: The spectrophotometric assay was carried out as described above for VEGF-R2, except for the following changes in concentration: LCK = 60 nM, MgCl2 = 0 mM, poly(E4Y1) = 20 mM.
# [1] = tested on: human umbilical vein endothelial cells (HUVEC); assay: HUVEC proliferation assay (VEGF-stimulated, MTT); assay type: cell-based; conditions: Homo sapiens, HUVEC, Table 1
# in vitro = in vitro ADME, human; conditions: human liver microsomes, 5 µM test compound, 37 °C, 2 h; for remaining at 2 h, 5 µM: read-out: % remain (HLM, 2 h)
# Method: Compound metabolism in human liver microsomes was measured by LC-MS analytical assay procedures as follows. First, human liver microsomes (HLM) were thawed and diluted to 5 mg/mL with cold 100 mM potassium phosphate (KPO4) buffer. Appropriate amounts of KPO4 buffer, NADPH-regenerating solution (containing B-NADP, glucose-6-phosphate, glucose-6-phosphate dehydrogenase, and MgCl2), and HLM were preincubated in 13 x 100 mm glass tubes at 37 C for 10 min. (3 tubes per test compound--triplicate). Test compound (5 µM final) was added to each tube to initiate reaction and was mixed by gentle vortexing, followed by incubation at 37 °C. At t=0, 2 h, a 250-µL sample was removed from each incubation tube to separate 12 x 75 mm glass tubes containing 1 mL ice-cold acetonitrile with 0.05 µM reserpine. […] Supernatant was transferred to new 12 x 75 mm glass tubes and evaporated by Speed-Vac centrifugal vacuum evaporator. Samples were reconstituted in 200 µL 0.1 % formic acid/acetonitrile (90/10) and vortexed vigorously to dissolve. The samples were then transferred to separate polypropylene microcentrifuge tubes and centrifuged at 14000 x g for 10 min. (Fisher Micro 14, S/N M0017580). For each replicate (#1-3) at each timepoint (0 and 2 h), an aliquot sample of each test compound was combined into a single HPLC vial insert (6 total samples) for LC-MS analysis, which is described below.
# in vivo = conditions: mouse, plasma, pH 2.3
# [2] = target: unphosphorylated VEGF-R2Δ50 (Homo sapiens, UniProt P35968, DEL940-989/E990V); assay: biochemical; conditions: for inhibition at 0.05 µM: read-out: FLVK ** (% inhibition)
# Sequence of unphosphorylated VEGF-R2Δ50 (P35968 with tags, fused parts or gaps DEL940-989/E990V limits assumed): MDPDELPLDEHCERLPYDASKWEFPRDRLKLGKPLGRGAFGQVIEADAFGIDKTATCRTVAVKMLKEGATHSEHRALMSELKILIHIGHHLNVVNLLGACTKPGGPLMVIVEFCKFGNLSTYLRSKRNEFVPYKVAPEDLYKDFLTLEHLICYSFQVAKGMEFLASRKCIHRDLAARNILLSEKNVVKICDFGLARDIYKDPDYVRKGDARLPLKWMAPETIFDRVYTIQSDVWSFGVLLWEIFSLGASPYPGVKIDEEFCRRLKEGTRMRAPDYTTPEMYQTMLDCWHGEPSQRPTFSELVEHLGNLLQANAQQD
# [3] = + albumin, read-out: HUVEC + albumin IC50
# [4] = PO, 25 mg/kg, vehicle PEG400:H2O pH 2.3 30:70
# [5] = PO, 50 mg/kg, vehicle PEG400:H2O pH 2.3 30:70
# [6] = IP, 25 mg/kg, vehicle PEG400:H2O pH 2.3 30:70
Compound,inhibition at 1 µM (human FGF-R1) [%],inhibition at 1 µM (LCK tyrosine kinase) [%],"IC50 [1, 3] [nM]",T1/2 [4] [h],"AUC (in vivo; po, 25 mg/kg) [ng·h/mL]",inhibition at 0.05 µM [2] [%],"% remain (HLM, 2 h) (in vitro)",further results
"O=C(Nc1cccc(C(=O)c2ccc3c(/C=C/c4ccccc4)n[nH]c3c2)c1)c1ccncc1 [19(j), 6-[3-(pyridin-4-ylcarboxamido)benzoyl]-3-E-styryl-1H-indazole]",44,23,50,,,,,"IC50 ([1]; read-out: HUVEC IC50): 2.2 nM; remaining at 2 h, 5 µM (in vitro): 66%; T1/2 (IP, 25 mg/kg, vehicle PEG400:H2O pH 2.3 60:40): 1.6 h; T1/2 (PO, 50 mg/kg, vehicle PEG400:H2O pH 2.3 60:40): 1.2 h; AUC (in vivo; ip, 25 mg/kg): 23200 ng·h/mL; AUC (in vivo; po, 50 mg/kg): 5890 ng·h/mL"
O=C(NNc1ccccn1)c1ccccc1Sc1ccc2c(/C=C/c3ccccn3)n[nH]c2c1 [35 (n)],,,,1.4,4820,,,
CN(O)C(=O)c1ccccc1Sc1ccc2c(/C=C/c3ccccn3)n[nH]c2c1 [35 (o)],,,,1.0,683,,,Cmin (7 hr conc.) [4]: 3 ng/mL
COc1cccc(C(=O)Nc2cccc(C(=O)c3ccc4c(/C=C/c5ccccn5)n[nH]c4c3)c2)c1 [41 (bb)],,,,,,,,"T1/2 [5]: 2.0 h; AUC (in vivo; po, 50 mg/kg): 2180 ng·h/mL"
CC(=O)Nc1cc(C(=O)c2ccc3c(/C=C/c4ccccn4)n[nH]c3c2)ccc1C [41 (gg)],,,,1.1,2690,,,
Cc1cc(C(=O)Nc2cc(C(=O)c3ccc4c(/C=C/c5ccccn5)n[nH]c4c3)ccc2C)n(C)n1 [41 (hh)],,,,,5600,,,"half-life (in vivo; po, 25 mg/kg): 7.9 h"
Cc1cc(C(=O)Nc2cc(C(=O)c3ccc4c(/C=C/c5ccccn5)n[nH]c4c3)c(C)cc2C)n(C)n1 [41 (mm)],,,,,2260,,,"half-life (in vivo; po, 25 mg/kg): 2.5 h"
Cn1nc(C(C)(C)C)cc1C(=O)Nc1cccc(C(=O)c2ccc3c(/C=C/c4ccccn4)n[nH]c3c2)c1 [41 (n)],,,,,,,,"T1/2 [6]: 3.2 h; T1/2 [5]: 1.9 h; AUC (in vivo; ip, 25 mg/kg): 9410 ng·h/mL; AUC (in vivo; po, 50 mg/kg): 9070 ng·h/mL"
Cc1cc(C(=O)Nc2cccc(C(=O)c3ccc4c(/C=C/c5ccccn5)n[nH]c4c3)c2)cc(Cl)n1 [41 (q)],,,,5.2,,,,"AUC (in vivo; ip, 25 mg/kg): > 27000 ng·h/mL"
C=CCn1nc(C)cc1C(=O)Nc1cccc(C(=O)c2ccc3c(/C=C/c4ccccn4)n[nH]c3c2)c1 [41 (t)],,,,4.0,> 22500,,,
COc1cc(C(=O)Nc2cccc(C(=O)c3ccc4c(/C=C/c5ccccn5)n[nH]c4c3)c2)cc(Cl)n1 [41 (u)],,,,5.6,875,,,
Cc1cc(C(=O)Nc2cccc(C(=O)c3ccc4c(/C=C/c5ccccn5)n[nH]c4c3)c2)n(C(C)C)n1 [41 (x)],,,,4.2,24200,,,
"CCn1nc(C)cc1C(=O)Nc1cccc(Oc2ccc3c(/C=C/c4cn(C)c(C)n4)n[nH]c3c2)c1 [Reference Example 31(f), 6-[3-((1-Ethyl-3-methyl-1H-pyrazol-5-yl)carboxamido)phenoxy]-3-E-[2-(1,2-dimethyl-1H-imidazol-4-yl)ethenyl]-1H-indazole]",99,62,> 10,2.6,> 245000,97,,
"CCn1nc(C)cc1C(=O)Nc1cccc(Oc2ccc3c(/C=C/c4c[nH]cn4)n[nH]c3c2)c1 [Reference Example 32(b), 6-[3-((1-Ethyl-3-methyl-1H-pyrazol-5-yl)carboxamido)phenoxy]-3-E-[2-(1H-imidazol-4-yl)ethenyl]-1H-indazole]",95,70,21,2.1,490,,,
"CCn1nc(C)cc1C(=O)Nc1cccc(Oc2ccc3c(/C=C/c4c[nH]c(C)n4)n[nH]c3c2)c1 [Reference Example 32(c), 6-[3-((1-Ethyl-3-methyl-1H-pyrazol-5-yl)carboxamido)phenoxy]-3-E-[2-(2-methylimidazol-4-yl)ethenyl]-1H-indazole]",96,52,> 30,2.4,388,,,
"O=C(Nc1ccccc1)c1ccccc1Sc1ccc2c(/C=C/c3ccccn3)n[nH]c2c1 [Reference Example 33(c), 6-[2-(phenylcarbamoyl)phenylsulfanyl]-3-E-[2-(pyrldin-2-yl)ethenyl]-1H-indazole]",76,26,6.6,,,,16%,"Cmin (7 hr conc.) [6]: 7 ng/mL; T1/2 [6]: 1.2 h; Cmin (7 hr conc.) [5]: 5 ng/mL; T1/2 [5]: 3.0 h; AUC (in vivo; ip, 25 mg/kg): 697 ng·h/mL; AUC (in vivo; po, 50 mg/kg): 183 ng·h/mL"
"CCONC(=O)c1cccc(F)c1Sc1ccc2c(/C=C/c3ccccn3)n[nH]c2c1 [Reference Example 37(a), 6-[6-Fluoro-2-(ethoxycarbamoyl)phenylsulfanyl}-3-E-[2-(pyridin-2-yl)ethenyl]-1H-indazole]",35,6,15,,,57,"21, ! %",
"CC(C)ONC(=O)c1cccc(F)c1Sc1ccc2c(/C=C/c3ccccn3)n[nH]c2c1 [Reference Example 37(c), 6-[6-fluoro-2-(isopropoxycarbamoyl)phenylsulfanyl]-3-E-[2-(pyridin-2-yl)ethenyl]-1H-indazole]",39,12,12,,,83,21%,
"COc1cccc(C(=O)Nc2cccc(C(=O)c3ccc4c(/C=C/c5ccccn5)n[nH]c4c3)c2)c1 [Reference Example 41(bb), 6-[3-(3-methoxybenzamido)benzoyl]-3-E-[2-(pyridin-2-yl)ethenyl]-1H-indazole]",88,76,1 to 3,,,99,110%,
"CC(C)=CC(=O)Nc1cccc(C(=O)c2ccc3c(/C=C/c4ccccn4)n[nH]c3c2)c1 [Reference Example 41(dd), 6-[3-(3,3-dimethylacrylamido)benzoyl]-3-E-[2-(pyridin-2-yl)ethenyl]-1H-indazole]",69,50,5.8,,,98,7%,
"Cc1cc(C(=O)Nc2cccc(C(=O)c3ccc4c(/C=C/c5ccccn5)n[nH]c4c3)c2)nn1C [Reference Example 41(i), 6-[3-((1,5-dimethyl-1H-pyrazol-3-yl)carboxamido)benzoyl]-3-E-[2-(pyridin-2-yl)ethenyl]-1H-indazole]",,,,,,98,,"FGF-P* (% inhibition) (human FGF-R1): 41%; FGF-P* (% inhibition) (human FGF-R1; listed as 41(I)): 66% and 76%; Lck-P* (% inhibition) (LCK tyrosine kinase): 16%; Lck-P* (% inhibition) (LCK tyrosine kinase; listed as 41(I)): 63%* and 38%*; IC50 ([1]; read-out: HUVEC IC50): 0.25 nM; remaining at 2 h, 5 µM (in vitro): 48%; Ki ([2]; FLVK ** (Ki), Table 1): 0.24 nM and 0.04 nM"
"Cc1cc(C(=O)Nc2cc(C(=O)c3ccc4c(/C=C/c5ccccn5)n[nH]c4c3)ccc2C)n(C(C)C)n1 [Reference Example 41(kk), 6-[3-((1-Isopropyl-3-methyl-1H-pyrazol-5-yl)carboxamido)-4-methylbenzoyl]-3-E-[2-(pyridin-2-yl)ethenyl]-1H-indazole]",97,26,16,,,100,63%,
"O=C(c1cccc(NC(=O)c2ccc(Cl)s2)c1)c1ccc2c(/C=C/c3ccccn3)n[nH]c2c1 [Reference Example 41(o), 6-[3-((5-chlorothien-2-yl)carboxamido)benzoyl]-3-E-[2-(pyridin-2-yl)ethenyl]-1H-indazole]",74,77,10,,,,94%,"AUC (in vivo; ip, 25 mg/kg): > 33800 ng·h/mL"

# Source: EP1614683B1, “Indazole compounds and pharmaceutical compositions for inhibiting protein kinases, and methods for their use” (priority 1999, dated 2001)
